{"source": "patent US5519028A", "about": "“Antiviral preparations” (priority 1992, dated 1996)", "key": {"in vivo": {"test": "in vivo", "details": "for LD50 at 336 h / LD50 safety limits: rat, in vivo", "experimental": "In accordance with the invention, flavopereirine is administered orally in the forms of capsules to patients infected with HIV at levels of 1-3 grams per day."}, "HIV-1 [1]": {"system": "HIV-1", "test": "HIV-1 cytopathogenic effect on MT4 cells (syncytia count)", "assay_type": "cell-based", "experimental": "An evaluation of the antiviral effect of flavopereirine was also undertaken by studying the cytopathogenic effect of the HIV virus on MT4 cells, given that a formation of syncytia was observed 4-6 days after infection by HIV-1, followed by the death of the cells.\nThe flavopereirine was used in the form of an alcoholic solution (40 mg in 100 μl alcohol). Dilutions were made in RPMI medium at 10% of FCS, 1% of PSN and 1% of glutamine. The MT4 cells were left to pre-incubate for two hours at 37° C. with a successive dilution of flavopereirine containing 3×10^5 cells for 10 μl of flavopereirine solution. The solution was obtained by adding 100 μl of a 10^-4 dilution of HIV-1 virus, producing a syncytia formation in 4-6 days. After one hour of incubation at 37° C., the infected MT4 cells were washed three times with RPMI solution before being placed in culture (3×10^5 cells/ml in microplates with 24 wells) with the presence of different dilutions of flavopereirine. The syncytia count was taken each day in duplicate."}, "HIV-1 BRE1 (HIV-1Asym.) [2]": {"system": "HIV-1 BRE1 (HIV-1Asym.)", "test": "HIV P24 production in PBMC, viral inoculum pretreated, isolate BRE1", "assay_type": "cell-based", "details": "virus pretreated with 30 or 60 μg/ml", "experimental": "(§1) To test the efficacy of flavopereirine on the infectious capability of HIV-1, two experiments were conducted. […] After 2 hours of incubation, the cells were rinsed twice and cultivated in 1 ml of RPMI 1640 containing 20 IU of IL-2 per ml (Boehringer […], Germany), 2 μg of Polybrene (hexadimethrine bromide) per ml (Sigma, St. Louis, Mo., USA) and 10^-7 IU of goat antiserum acting against human alpha interferon (Janssen, Beerse, Belgium) per ml. Half the culture was changed after 72 hours, and thereafter every 48 hours until the 30th day. […] The surface material of the culture was tested by an immuno-enzymatic (ELISA) assay for the production of antigen P24 (Abbott, Chicago, Ill., USA) and the optical density (OD) of the resulting color was converted into P24 concentration from the slope of a standard nomogram, as described by W. Lu and J. -M. Andrieu, Journal of Virology, 66(1): 334-340 (1992)."}, "HIV-1 BRE1 (HIV-1Asym.) [3]": {"system": "HIV-1 BRE1 (HIV-1Asym.)", "test": "HIV P24 production, target PBMC pretreated, isolate BRE1", "assay_type": "cell-based", "details": "for Post-infection production of HIV P24: PBMC + 30 μg/ml 2 hours", "experimental": "as §1"}, "TNF-α": {"system": "TNF-α", "test": "TNF-α production by monocytes of normal donors", "assay_type": "cell-based, human", "experimental": "(§2) The effects of flavopereirine on the production of primary (IL-1β and TNF-α) and secondary (IL-6) cytokines by monocytes was also tested. The adhesive monocytes used were taken from the blood of two types of donors:\n(§3) Normal donors--voluntary blood donors who attended the blood bank of the Pitie-Salpetriere Hospital, Paris, France; and\n(§4) Product H was not used in these experiments at a rate of more than 20 μg/ml water, since above this rate, net toxicity could have been produced."}, "IL-1β": {"system": "IL-1β", "test": "IL-1β production by monocytes of normal donors", "assay_type": "cell-based, human", "experimental": "as §2, §3, §4"}, "interleukin-6": {"system": "interleukin-6", "test": "IL-6 production by monocytes of HIV-positive donors", "assay_type": "cell-based, human", "experimental": "as §2\nHIV-positive donors from medical consultations. These individuals were in the early stages of HIV infection and, at the moment of taking the blood, were not undergoing any treatment. The risk factors involved were intravenous drug abuse for six of the donors, sexual transmission for three and blood transfusion (in Zaire) for one patient. No correlation was found between the risk factors and the results of the experiments.\nThe response of the monocytes taken from the various HIV-positive donors was tested in terms of spontaneous response. The quantities of cells received were low (the donors were not affected by cytapheresy), and the experiments were therefore limited by the number of cells available.\nInterleukin-4 was used at the same time as flavopereirine H, since it has been shown prior to these experiments that this cytokine blocks the spontaneous production of interleukin-6 in certain HIV-positive patients.\nIn five cases, […] was used for comparison, since this, too, blocks the production of IL-6 in normal monocytes stimulated by LPS."}, "[4]": {"test": "Cytotoxicity in human monocytes", "assay_type": "cell-based", "details": "human, monocytes", "experimental": "as §4"}, "human monocytes": {"system": "human monocytes", "test": "Cytotoxicity in human monocytes", "assay_type": "cell-based", "details": "four donors", "experimental": "as §4"}, "HIV-1 [5]": {"system": "HIV-1"}, "HIV": {"system": "HIV", "details": "human, in vivo"}, "[6]": {"system": "viruses of the Shope fibrome type", "details": "intracutaneously 200-600 μg or 2.5-500 mg/day; cited from earlier work"}}, "note": "Entries after “also recorded” stand apart in the source; their conditions may differ. Where two headings read alike, the source gives them in different places."}
{"smiles": "CCc1ccc2c3[nH]c4ccccc4c3cc[n+]2c1", "note": "[flavopereirine]", "values": [{"measurement": "LD50 at 336 h", "setting": "in vivo; ip", "result": 2450, "unit": "mg/kg"}, {"measurement": "LD50 safety limits", "setting": "in vivo; ip", "result": "2350 to 2550", "unit": "mg/kg"}, {"measurement": "LD50 at 336 h", "setting": "in vivo; po", "result": 10400, "unit": "mg/kg"}, {"measurement": "LD50 safety limits", "setting": "in vivo; po", "result": "9630 to 11350", "unit": "mg/kg"}, {"measurement": "change in mortality rate", "setting": "in vivo; subsequent 14 days, surviving animals", "result": "No change in mortality rate"}, {"measurement": "syncytia", "setting": "HIV-1 [1]; 100 ng/ml, d7, duplicate, Table I", "result": "++/T"}, {"measurement": "syncytia", "setting": "HIV-1 [1]; 1 μg/ml, d7, duplicate, Table I", "result": "++/T"}, {"measurement": "syncytia", "setting": "HIV-1 [1]; 30 μg/ml, d6, duplicate, Table III", "result": "a few were observed after 6 days"}, {"measurement": "syncytia", "setting": "HIV-1 [1]; 50 μg/ml, d7, duplicate, Table I", "result": "syncytia had not formed after 7 days culture"}, {"measurement": "protection", "setting": "HIV-1 [1]; 50 μg/ml, Table II summary", "result": "confirms the protection"}, {"measurement": "syncytia", "setting": "HIV-1 [1]; 60 μg/ml, d7, duplicate, Table III", "result": "no syncytia were formed"}, {"measurement": "syncytia", "setting": "HIV-1 [1]; from 10 μg/ml to 100 ng/ml, Table I summary", "result": "syncytia was observed, as it was in the HIV-1 control"}, {"measurement": "infection of target PBMC", "setting": "HIV-1 BRE1 (HIV-1Asym.) [2]", "result": "completely prevented the infection of target PBMC"}, {"measurement": "Post-infection production of HIV P24", "setting": "HIV-1 BRE1 (HIV-1Asym.) [3]; d3", "result": "113 ± 7", "unit": "pg/mL"}, {"measurement": "Post-infection production of HIV P24", "setting": "HIV-1 BRE1 (HIV-1Asym.) [3]; d5", "result": "> 1500", "unit": "pg/mL"}, {"measurement": "inhibition of productive viral infections", "setting": "HIV-1 BRE1 (HIV-1Asym.) [3]; target PBMC pretreated with 60 μg/ml only", "result": "complete inhibition of productive viral infections"}, {"measurement": "direct activity on production of TNF-α", "setting": "TNF-α; donor 7, one dose only", "result": "Increase in the production of TNF-α"}, {"measurement": "indirect activity on production of TNF-α", "setting": "TNF-α; stimulated monocytes, heavy dosage only (20 βg/ml as printed), p<0.05", "result": "sharp reduction in production"}, {"measurement": "direct activity on production of IL-1β", "setting": "IL-1β; donor #10, 10 and 20 μg/ml", "result": "responded very well"}, {"measurement": "direct activity on production of IL-1β", "setting": "IL-1β; donors #3, 5 and 6, dose effect, marginal", "result": "Increase in the production of IL-1β"}, {"measurement": "indirect activity on production of IL-1β", "setting": "IL-1β; response to LPS or IFN-γ+LPS, p<0.05", "result": "no significant modification"}, {"measurement": "effect on spontaneous production of IL-6", "setting": "interleukin-6; alone, dosage effect, never total, p<0.05, listed as Product H", "result": "inhibitory effect with a very clear dosage effect; also recorded: inhibited the spontaneous production of IL-6 shown in some HIV-positive patients"}, {"measurement": "effect on spontaneous production of IL-6 with interleukin-4", "setting": "interleukin-6; in presence of interleukin-4, listed as product H", "result": "an amplification effect was almost always obtained"}, {"measurement": "concentration for total disappearance of IL-6 production", "setting": "interleukin-6; with interleukin-4, almost always (except case #4), p<0.05", "result": 3, "unit": "µg/mL"}, {"measurement": "concentration for total disappearance of IL-6 production (often)", "setting": "interleukin-6; with interleukin-4, often, p<0.05", "result": 1, "unit": "µg/mL"}, {"measurement": "cytotoxicity", "setting": "[4]; 30 μg/ml, four donors", "result": "> 40", "unit": "%"}, {"measurement": "MCC", "setting": "[4]; healthy and asymptomatic HIV-positive donors, read-out: toxic dosage on human monocytes in vitro", "result": "> 20", "unit": "µg/mL"}, {"measurement": "cytotoxicity", "setting": "human monocytes; 30, 50, 100 μg/ml", "result": "virtually total cytotoxicity"}, {"measurement": "cytotoxicity", "setting": "human monocytes; above 30 μg/ml", "result": 100, "unit": "µg/mL"}, {"measurement": "Production of P24 in HIV", "setting": "HIV-1 [5]; 50% AB serum, 10 μg/ml 2 hrs, d4", "result": "384 ± 83", "unit": "pg/mL"}, {"measurement": "Production of P24 in HIV", "setting": "HIV-1 [5]; 50% AB serum, 10 μg/ml 2 hrs, d10", "result": "> 1500", "unit": "pg/mL"}, {"measurement": "Production of P24 in HIV", "setting": "HIV-1 [5]; 50% AB serum, 30 μg/ml 2 hrs, d4", "result": "275 ± 98", "unit": "pg/mL"}, {"measurement": "Production of P24 in HIV", "setting": "HIV-1 [5]; 50% AB serum, 30 μg/ml 2 hrs, d10", "result": "> 1500", "unit": "pg/mL"}, {"measurement": "efficacy on inhibition of wild HIV-1 in human serum", "setting": "HIV-1 [5]; 50% human serum", "result": "remained unchanged"}, {"measurement": "influence of constituents of human serum", "setting": "HIV-1 [5]; HIV-1 inhibition at non-cytotoxic concentrations", "result": "did not appear to be influenced by the constituents of the human serum"}, {"measurement": "Production of P24 in HIV", "setting": "HIV-1 [5]; no serum, 10 μg/ml 2 hrs, d4", "result": "388 ± 124", "unit": "pg/mL"}, {"measurement": "Production of P24 in HIV", "setting": "HIV-1 [5]; no serum, 10 μg/ml 2 hrs, d10", "result": "> 1500", "unit": "pg/mL"}, {"measurement": "Production of P24 in HIV", "setting": "HIV-1 [5]; no serum, 30 μg/ml 2 hrs, d4", "result": "173 ± 102", "unit": "pg/mL"}, {"measurement": "Production of P24 in HIV", "setting": "HIV-1 [5]; no serum, 30 μg/ml 2 hrs, d10", "result": "> 1500", "unit": "pg/mL"}, {"measurement": "CD2", "setting": "HIV", "result": "Increase"}, {"measurement": "CD4", "setting": "HIV", "result": "Increase"}, {"measurement": "CD4+ cells", "setting": "HIV", "result": "significant increase"}, {"measurement": "CD8", "setting": "HIV", "result": "Increase"}, {"measurement": "CD19", "setting": "HIV", "result": "Increase"}, {"measurement": "CD19+ cells", "setting": "HIV", "result": "significant increase"}, {"measurement": "Karnofsky's index", "setting": "HIV", "result": "~100", "unit": "%"}, {"measurement": "blood or renal toxicity", "setting": "HIV", "result": "Neither blood nor renal toxicity was observed"}, {"measurement": "degradation in CDC classification", "setting": "HIV", "result": "No degradation in the CDC classification"}, {"measurement": "effect on viral infectional capacity of HIV", "setting": "HIV", "result": "significant inhibitory effect on the viral infectional capacity of HIV"}, {"measurement": "hemoglobin", "setting": "HIV", "result": "Increase"}, {"measurement": "infections", "setting": "HIV", "result": "no infections were noticed"}, {"measurement": "microglobulin beta-2", "setting": "HIV", "result": "Increase"}, {"measurement": "modification in ALAT or ASAT", "setting": "HIV", "result": "nor was there any significant modification in ALAT or ASAT"}, {"measurement": "patients with negative decline in CD4+ reversed", "setting": "HIV", "result": "18 out of 19"}, {"measurement": "physical and professional activity", "setting": "HIV", "result": "remained completely normal"}, {"measurement": "red cells", "setting": "HIV", "result": "Increase"}, {"measurement": "side effects", "setting": "HIV", "result": "Side effects were few, occurring only in the first three months"}, {"measurement": "total lymphocyte mass", "setting": "HIV", "result": "Increase"}, {"measurement": "toxic or side effects", "setting": "HIV; po", "result": "devoid of toxic or side effects"}, {"measurement": "appearance and development of vital papules", "setting": "[6]", "result": "prevents the appearance and development of vital papules"}]}
